Measurements as given in ChEMBL document CHEMBL1201862, “PubChem BioAssay data set” (2004).
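Results reflect a 48-hour exposure of cells in 96-well plates to compound at five concentrations. Abbreviation: GI50, concentration required for 50% inhibition of growth.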 The source made the active and inactive calls. Cut-off read from the data, not from the text of the source: active = GI50 up to about 1.1 µM and inactive = higher.

Columns and labels:
Test in all cases: NCI-60 cell line screen, 48 h
A549 = system: A549
CAKI-1 = system: CAKI-1
CCRF-CEM = system: CCRF-CEM
COLO 205 = system: COLO 205
HL-60 = system: HL-60
Hs-578T = system: Hs-578T
K562 = system: K562
NCI-H23 = system: NCI-H23
NCI/ADR-RES = system: NCI/ADR-RES
OVCAR-5 = system: OVCAR-5
PC-3 = system: PC-3
RPMI-8226 = system: RPMI-8226
SK-MEL-28 = system: SK-MEL-28
T47D = system: T47D
U-251 = system: U-251
UACC-62 = system: UACC-62
UO-31 = system: UO-31
HOP-92 = system: HOP-92
OVCAR-4 = system: OVCAR-4

Measured: GI50

CC1(C)C2CCC(=O)C1CC2 (stereo unspecified)
inactive: A549 > 100 µM | CAKI-1 > 100 µM | CCRF-CEM > 100 µM | COLO 205 > 100 µM | HL-60 > 100 µM | Hs-578T > 100 µM | K562 58.2 µM | NCI-H23 > 100 µM | NCI/ADR-RES > 100 µM | OVCAR-5 > 100 µM | PC-3 > 100 µM | RPMI-8226 > 100 µM | SK-MEL-28 > 100 µM | T47D > 100 µM | U-251 > 100 µM | UACC-62 > 100 µM | UO-31 > 100 µM

CN(C)[C@@H]1C(O)=C(C(N)=O)C(=O)[C@@]2(O)C(O)=C3C(=O)c4c(O)cccc4C[C@H]3C[C@@H]12
inactive: A549 2.32 µM | CAKI-1 1.98 µM | CCRF-CEM 2.37 µM | COLO 205 1.77 µM | HL-60 2 µM | HOP-92 2.26 µM | K562 2.51 µM | NCI-H23 2 µM | OVCAR-4 1.68 µM | OVCAR-5 2.09 µM | RPMI-8226 2.17 µM | SK-MEL-28 1.77 µM | U-251 2.17 µM | UACC-62 1.72 µM | UO-31 1.87 µM

Cc1cccc(C(C)C)c1N1C(=O)C(=O)C(c2nc3ccccc3o2)C(=O)C1=O
inactive: A549 > 100 µM | CAKI-1 > 100 µM | CCRF-CEM 20.2 µM | COLO 205 41.8 µM | HL-60 30.3 µM | HOP-92 > 100 µM | K562 49 µM | NCI-H23 80.2 µM | OVCAR-4 > 100 µM | OVCAR-5 > 100 µM | SK-MEL-28 > 100 µM | U-251 89.3 µM | UACC-62 61 µM | UO-31 > 100 µM

CSc1nc2c(nc(C)c(=O)n2C2OCC(OC(C)=O)C(OC(C)=O)C2OC(C)=O)c(=O)[nH]1 (stereo unspecified)
inactive: A549 > 100 µM | CAKI-1 88.5 µM | CCRF-CEM > 100 µM | COLO 205 > 100 µM | HL-60 > 100 µM | HOP-92 3.76 µM | K562 > 100 µM | NCI-H23 > 100 µM | OVCAR-4 > 100 µM | OVCAR-5 > 100 µM | RPMI-8226 > 100 µM | SK-MEL-28 > 100 µM | U-251 > 100 µM | UACC-62 > 100 µM | UO-31 > 100 µM

CCN(CC)c1ccc2cc3ccc(N(CC)CC)cc3[o+]c2c1
active: CCRF-CEM 0.0419 µM | COLO 205 0.798 µM | HL-60 0.0773 µM | HOP-92 0.693 µM | NCI-H23 0.946 µM | RPMI-8226 0.305 µM | U-251 0.624 µM
inactive: A549 3.14 µM | CAKI-1 4.06 µM | K562 2.82 µM | OVCAR-4 11.1 µM | OVCAR-5 6.82 µM | SK-MEL-28 2.56 µM | UACC-62 1.71 µM | UO-31 2.28 µM

CC1C[C@@H]2C(=O)NC(=O)[C@@H]2c2c1c1ccccc1n2C (stereo partly specified)
inactive: A549 > 100 µM | CAKI-1 > 100 µM | CCRF-CEM 97.9 µM | COLO 205 > 100 µM | HL-60 > 100 µM | HOP-92 > 100 µM | K562 > 100 µM | NCI-H23 > 100 µM | RPMI-8226 > 100 µM | SK-MEL-28 > 100 µM | U-251 > 100 µM | UACC-62 > 100 µM | UO-31 > 100 µM

Cc1nc(C(N)=S)sc1C(=O)CC(=O)C(=O)Nc1ccccc1[N+](=O)[O-]
inactive: A549 > 100 µM | CAKI-1 > 100 µM | CCRF-CEM > 100 µM | HL-60 > 100 µM | HOP-92 > 100 µM | K562 > 100 µM | NCI-H23 > 100 µM | OVCAR-4 > 100 µM | OVCAR-5 > 100 µM | RPMI-8226 > 100 µM | SK-MEL-28 > 100 µM | U-251 > 100 µM | UACC-62 > 100 µM | UO-31 > 100 µM

O=C(CC(C(=O)c1cccs1)c1ccsc1)c1ccc(Cl)s1 (stereo unspecified)
inactive: A549 > 100 µM | CAKI-1 > 100 µM | CCRF-CEM > 100 µM | COLO 205 > 100 µM | HL-60 75.2 µM | Hs-578T 60.1 µM | K562 > 100 µM | NCI-H23 > 100 µM | NCI/ADR-RES 12.1 µM | OVCAR-4 > 100 µM | OVCAR-5 31.4 µM | PC-3 > 100 µM | RPMI-8226 55.1 µM | SK-MEL-28 > 100 µM | T47D 44.3 µM | U-251 > 100 µM | UACC-62 99.3 µM | UO-31 36.6 µM

Nc1nnc(N)n1N
inactive: A549 > 100 µM | CAKI-1 > 100 µM | CCRF-CEM > 100 µM | COLO 205 > 100 µM | HL-60 > 100 µM | HOP-92 > 100 µM | K562 > 100 µM | NCI-H23 > 100 µM | OVCAR-4 > 100 µM | OVCAR-5 > 100 µM | RPMI-8226 > 100 µM | SK-MEL-28 > 100 µM | U-251 > 100 µM | UACC-62 > 100 µM | UO-31 > 100 µM
